Test results: patent publication US20120245229A1, “METHOD FOR TREATING NEUROPATHIC PAIN” (priority 2009, published 2012)

Experiments:
[1] = system: intrathecal TNF-α-induced hypersensitivity; assay: Intrathecal TNF-α-induced heat hyperalgesia and mechanical allodynia; type: in vivo, mice
Procedure: Behavioral analysis. Mice were habituated in the testing environment for two days and performed behavioral testing in a blinded manner. Formalin-evoked spontaneous inflammatory pain was assessed by measuring duration (seconds) animals spent on licking/flinching the affected paws every 5 min for 45 min. Capsaicin-induced spontaneous pain was aslo assessed for 10 min. For testing mechanical sensitivity, mice were put in boxes on an elevated metal mesh floor and stimulated hindpaw with a series of von Frey hairs with logarithmically incrementing stiffness (0.02-2.56 grams, Stoelting), presented perpendicular to the plantar surface. It was determined the 50% paw withdrawal threshold using Dixon's up-down method^40. For testing heat sensitivity, mice were placed in plastic boxes and tested heat sensitivity using Hargreaves radiant heat apparatus (IITC Life Science Inc.). The basal paw withdrawal latency was adjusted to 9-12 seconds and set a cut-off of 20 seconds to prevent tissue damage. […] BL1, baseline latency before inflammation; BL2, baseline latency after inflammation but before drug injection; PL, latency post drug injection. Intrathecal injection: […] To examine whether pretreatment of RvE1 attenuates capsaicin-induced acute spontaneous pain, RvE1 and capsaicin were mixed and injected at the same time (FIG. 3f).

[2] = system: phosphorylation of ERK (pERK); assay: ERK phosphorylation (pERK) in cultured DRG neurons; type: cell-based, mice; conditions: dissociated DRG neurons; RvE1 10 ng/ml; TNF-α 10 ng/ml; capsaicin 500 nM
Procedure: Primary DRG culture. DRGs were aseptically removed from 4-week old mice and digested them first with collagenase (1.25 mg/ml)/dispase-II (2.4 units/ml) at 37° C. for 90 min then with 0.25% trypsin for 8 min at 37° C. DRG cells were mechanically dissociated with a flame polished Pasteur pipette in the presence of 0.05% DNAse I and plated these cells onto poly-D-lysine and laminin-coated slide chambers. DRG cells were grown in a neurobasal defined medium (with 2% B27 supplement, Invitrogen) in the presence of NGF (50 ng/ml) for 24 h and replaced the medium with NGF-free medium before stimulation. For immunocytochemistry, DRG cells were fixed with 4% paraformaldehyde for 30 min and incubated the cells with pERK primary antibody (rabbit, Cell signaling, 1:500) overnight.
Resolvins were also used for intraplantar injection. RvD1 or RvE1 was injected into the plantar surface of a hindapaw [20 ng, 20 μl , in 1% ethanol (Supplementary FIG. 5a, 5b) or in 10% ethanol (FIG. 2e, Supplementary FIG. 1d)]. […]
pERK immunocytochemistry in DRG neurons: DRG cells grown in slide chambers were fixed with 4% paraformaldehyde for 30 min and incubated with pERK primary antibody (Rabbit, Cell Signaling, 1:500) at 4° C. overnight. The stained cells were examined with a Nikon fluorescence microscope, and images in 3 randomly-selected optic fields from each chamber were captured with a CCD Spot camera. […]

neutrophil infiltration = assay: Myeloperoxidase (MPO) assay of neutrophil infiltration in the inflamed paw; type: in vivo, mice; conditions: intraplantar pretreatment; 4 h after CRG injection
Procedure: Myeloperoxidase assay. Paw inflammation is associated with infiltration of neutrophils (polymorphonuclear cells), and myeloperoxidase (MPO) activity is often used to quantify neutrophil activation to evaluate the magnitude of paw inflammation. To determine MPO assay, fresh skin tissues were suspended in phosphate buffer and homogenized. The suspension was centrifuged and the supernatant was assayed for MPO activity using a MPO Activity Assay Kit (Northwest Life Science Specialties, LLC). Each reaction was performed according to manufacturer's protocol. Briefly, hypochlorous acid (HOCl) is formed from MPO catalyzed reaction between chloride and hydrogen peroxide. HOCl is rapidly trapped by β-amino acid taurine to form a stable oxidant taurine chloramine. Taurine chloramine is then allowed to react with 5-thio-2-nitrobenzoic acid (TNB). TNB has a chromophore that has maximal absorbance at 412 nm while its reaction product with taurin chloramine is colorless. The color change is detected by spectrophotometry. By following the decrease of absorbance at 412 nm, MPO activity is measured. One unit is the amount of MPO that can produce 1.0 nmole of taurine chloramine at pH 6.5 and 25° C. during 30 minutes in the presence of 100 mM chloride and 100 μM of hydrogen peroxide.

[3] = system: glutamate NMDA receptors (NMDARs); assay: NMDA-induced currents in dorsal horn (lamina II) neurons of spinal cord slices; type: cell-based, mice; conditions: NMDA 50 μM; TNF-α 10 ng/ml; PD98059 1 μM, U0126 1 μM, capsazepine 10 μM
Procedure: Spinal cord slice preparation. As previously reported^39, a portion of the lumbar spinal cord (L4-L5) was removed from young mice (3-4 week old) under urethane anesthesia (1.5-2.0 g/kg, i.p.) and transverse spinal cord slices were cut (600 μm) on a vibrating microslicer. The slices were perfused with Kreb's solution (8 ml/min) for >2 h prior to experiments. Some slices were stimulated with TNF-α (10 ng/ml, 5 min), the slices were fixed with 4% paraformaldehyde for 1 h, and processed pERK immunohistochemistry using thin sections (15 μm)^13.
Patch clamp recordings in spinal slices. Whole cell patch-clamp recordings were performed in lamina II neurons in voltage clamp mode^39. After establishing the whole-cell configuration, neurons were held at the holding potentials of −70 mV for recording spontaneous excitatory postsynaptic current (sEPSC). NMDA-induced currents were recorded by bath application of NMDA (50 μM, Sigma) at the holding potential of −50 mV. Membrane currents were amplified with an Axopatch 200A amplifier (Axon Instruments) in voltage-clamp mode. pCLAMP 6 was used and Mini Analysis (Synaptosoft Inc.) software to store and analyze the data. Those cells showing >5% changes from the baseline levels were reagrded as responding ones^24.
Resolvins were also used for intraplantar injection. RvD1 or RvE1 was injected into the plantar surface of a hindapaw [20 ng, 20 μl , in 1% ethanol (Supplementary FIG. 5a, 5b) or in 10% ethanol (FIG. 2e, Supplementary FIG. 1d)]. DRG cultures were incubated with RvE1 (10 ng/ml, 0.1% ethanol in culture medium) and perfused spinal cord slices with RvE1 (1 ng/ml, in 0.01% ethanol and Kreb's solution).
Perfusion of spinal cord slices: Spinal cord slices were incubated with chemerin (100 ng/ml, in Kreb's solution), TNF-α (10 ng/ml, in Kreb's solution), capsaicin (100 nM, in 0.01% DMSO and Kreb's solution), TRPV1 antagonist capsazepine (Sigma, 10 μM, in 0.01% DMSO and Kreb's solution), pertussix toxin (0.5 μg/ml, in Kreb's solution), and MEK inhibitor PD98059 and U0126 (CalBiochem, 1 μM, in 0.01% DMSO and Kreb's solution). For pertussix toxin treatment, spinal cord slices were incubated with the toxin for 3 h before stimulation.

Compound: CC[C@@H](O)/C=C/C=C\C[C@@H](O)/C=C/C=C/C=C\[C@@H](O)CCCC(=O)O [RvE1, 5S,12R,18R-trihydroxyeicosapentaenoic acid]
- mechanical allodynia induced by TNF-α ([1]; intrathecal RvE1 pretreatment): attenuated
- TNF-α-induced heat hyperalgesia ([1]; spinal (intrathecal) RvE1 mixed with TNF-α 20 ng): substantially reduced
- TNF-α- and capsaicin-elicited increases in phosphorylation of ERK (pERK) [2]: abolished
- neutrophil infiltration (MPO activity) (neutrophil infiltration): reducing
- TNF-α-induced potentiation of NMDA currents (NMDAR activation) [3]: blocked this potentiation
